Laboratory results published in paper PMC3601546 (Bioorganic & medicinal chemistry letters, 2012).
Each block holds one compound with its values, some of them ahead of it.

Legend:
human NPBWR1 = target: T1, human NPBWR1 (Homo sapiens, UniProt P48145); assay: NPBWR1 antagonist calcium release; type: cell-based; details: for fold less potent than 1j: ratio of NPBWR1 IC50 vs 1j; for fold more potent than the hit 1a: ratio of NPBWR1 IC50 vs 1a
T1 sequence (P48145 1-328): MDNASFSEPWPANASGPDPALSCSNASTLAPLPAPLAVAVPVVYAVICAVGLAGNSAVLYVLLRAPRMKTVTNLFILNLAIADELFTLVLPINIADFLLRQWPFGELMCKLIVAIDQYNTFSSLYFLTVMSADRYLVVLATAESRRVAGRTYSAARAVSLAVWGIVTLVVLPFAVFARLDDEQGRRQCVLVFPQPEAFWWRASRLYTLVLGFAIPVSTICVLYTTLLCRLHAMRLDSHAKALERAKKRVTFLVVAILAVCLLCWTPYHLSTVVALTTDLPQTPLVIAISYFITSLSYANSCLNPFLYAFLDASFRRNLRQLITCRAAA

[1] = tested on: Ricerca panel of 35 therapeutically relevant off-target proteins including GPCRs, enzymes and ion channels; assay: Selectivity profile against Ricerca panel of 35 off-target proteins; details: at 10 μM
HT29 cells = assay: Viability assay on HT29 cells; type: cell-based; details: final tested concentration of 20 μM

NPBWR1 antagonist activity in words (human NPBWR1): Total loss of potency
SMILES: COc1ccc(Oc2c(N)cnn(-c3ccc(C(C)C)cc3)c2=O)cc1 [9p]

fold less potent than 1j (human NPBWR1): 10 fold
SMILES: COC(=O)c1cnn(-c2ccc(C(C)C)cc2)c(=O)c1Oc1ccc(OC)cc1 [9n]

fold less potent than 1j (human NPBWR1): ~ 15 fold
SMILES: COc1ccc(Oc2c(C#N)cnn(-c3ccc(C(C)C)cc3)c2=O)cc1 [9l]

fold less potent than 1j (human NPBWR1): ~ 28 fold
SMILES: COc1ccc(Oc2c(C)cnn(-c3ccc(C(C)C)cc3)c2=O)cc1 [9g]

NPBWR1 antagonist activity in words (human NPBWR1): Total loss of potency
SMILES: COc1ccc(Oc2ccnn(-c3ccc(C(C)C)cc3)c2=O)cc1 [9o]

NPBWR1 antagonist activity in words (human NPBWR1): inactive
SMILES: COc1ccc(Oc2c(C(=O)O)cnn(-c3ccc(C(C)C)cc3)c2=O)cc1 [9m]

fold less potent than 1j (human NPBWR1): ~9 fold
SMILES: C=Cc1cnn(-c2ccc(C(C)C)cc2)c(=O)c1Oc1ccc(OC)cc1 [9h]

NPBWR1 antagonist activity in words (human NPBWR1): Total loss of potency
SMILES: COc1ccc(Oc2c(NC(C)=O)cnn(-c3ccc(C(C)C)cc3)c2=O)cc1 [9q]

fold less potent than 1j (human NPBWR1): ~ 23 fold
SMILES: COc1ccc(Oc2c(C=O)cnn(-c3ccc(C(C)C)cc3)c2=O)cc1 [9j]

fold less potent than 1j (human NPBWR1): ~ 21 fold
SMILES: COc1ccc(Oc2c(CO)cnn(-c3ccc(C(C)C)cc3)c2=O)cc1 [9k]

Second part, the compound before the results:

SMILES: COc1ccc(Oc2c(C3CC3)cnn(-c3ccc(C)cc3)c2=O)cc1 [9f]
fold loss in potency compared to 9a (human NPBWR1; ratio of NPBWR1 IC50 vs 9a): ~ eightfold

SMILES: CC(C)c1ccc(-n2ncc(Cl)c(Oc3ccc(OC(F)(F)F)cc3)c2=O)cc1 [6j]
fold less potent than 1j (human NPBWR1): ~45 fold

SMILES: COC(=O)c1nn(-c2ccc(C(C)C)cc2)c(=O)c(Oc2ccc(OC)cc2)c1Cl [9u]
fold less potent than 1j (human NPBWR1): 13 fold

SMILES: COc1ccc(Oc2c(-c3ccccc3)cnn(-c3ccc(C)cc3)c2=O)cc1 [9d]
NPBWR1 antagonist activity in words (human NPBWR1): drastic loss in potency

SMILES: COc1ccc(Oc2c(Cl)cnn(-c3cc(C)cc(C)c3)c2=O)cc1 [1z, 5-chloro-2-(3,5-dimethylphenyl)-4-(4-methoxyphenoxy)pyridazin-3(2H)-one]
stimulation/inhibition against the pool of tested off-targets [1]: < 50%
cytotoxicity in viability assay (HT29 cells): non cytotoxic

SMILES: COc1ccc(Oc2c(Cl)c(C(=O)O)nn(-c3ccc(C(C)C)cc3)c2=O)cc1 [9t]
NPBWR1 antagonist activity in words (human NPBWR1): Total loss of activity

SMILES: CC(C)c1ccc(-n2ncc(Cl)c(Oc3ccc(O)cc3)c2=O)cc1 [6i]
fold less potent than 1j (human NPBWR1): ~ 18 fold

SMILES: COc1ccc(Oc2c(Cl)cnn(-c3ccc(C)c(C)c3)c2=O)cc1 [1s]
fold more potent than the hit 1a (human NPBWR1): ~ fourfold

SMILES: Cc1ccc(-n2ncc(Cl)c(Oc3ccc(C(F)(F)F)cc3)c2=O)cc1 [6e]
fold more potent than the hit 1a (human NPBWR1): 2- to 3 fold

SMILES: CCOC(=O)c1nn(-c2ccc(C(C)C)cc2)c(=O)c(Oc2ccc(OC)cc2)c1Cl [9s]
fold less potent than 1j (human NPBWR1): 13 fold

SMILES: COc1ccc(Oc2c(Cl)c(OC)nn(-c3cccc(C)c3)c2=O)cc1 [9r]
fold decrease in potency compared to 1t (human NPBWR1; ratio of NPBWR1 IC50 vs 1t): ~ 3.5 fold

SMILES: CC(C)c1ccc(-n2ncc(Cl)c(Oc3ccc(C(=O)CN)cc3)c2=O)cc1 [6l]
fold less potent than 1j (human NPBWR1): eightfold
